Test results as given in patent US20260242391A1 (priority 2023, published 2026).

Columns and labels:
HL-60 = HL-60 differentiation potency; assay type: cell-based; settings: Homo sapiens
in vitro = settings: human

SMILES	EC50 (HL-60) [µM]	IC50 (in vitro) [µM]	IC50 (in vitro; HL-60 cells) [µM]
C[C@H]1[C@@H](Oc2ccc(CC(=O)N[C@H]3CC[C@@H](C(=O)O)CC3)cc2)O[C@@H]2O[C@@]3(C)CC[C@H]4[C@H](C)CC[C@@H]1[C@@]24OO3 [Compound 308, (1R,4s)-4-(2-(4-(((3R,5aS,6R,8aS, 9R,10S,12R, 12aR)-3,6,9-trimethyldeca-hydro-12H-3,12-epoxy[1,2]dioxepino[4,3-i]isochromen-10-yl)oxy)phenyl)acetamido) cyclohexane-1-carboxylic acid]	0.0121		> 20
CO[C@]1(CO[C@H]2O[C@@H]3O[C@@]4(C)CC[C@H]5[C@H](C)CC[C@@H]([C@H]2C)[C@@]35OO4)CC[C@@H](C(=O)O)CC1 [Compound 199, (1S,4r)-4-methoxy-4-((((3R,5aS,6R,8aS, 9R,10S,12R, 12aR)-3,6,9-trimethyldeca-hydro-12H-3,12-epoxy[1,2]dioxepino[4,3-i]isochromen-10-yl)oxy)methyl) cyclohexane-1-carboxylic acid]	6.48	> 20	
C[C@H]1[C@@H](Oc2ccc(C3(C(=O)O)COC3)cc2)O[C@@H]2O[C@@]3(C)CC[C@H]4[C@H](C)CC[C@@H]1[C@@]24OO3 [Compound 283, 3-(4-(((3R,5aS,6R,8aS, 9R,10S,12R, 12aR)-3,6,9-trimethyldeca-hydro-12H-3,12-epoxy[1,2]dioxepino[4,3-i]isochromen-10-yl)oxy)phenyl) oxetane-3-carboxylic acid]	0.0403	> 20	
C[C@H]1[C@@H](Oc2ccc(COCC(=O)O)cc2)O[C@@H]2O[C@@]3(C)CC[C@H]4[C@H](C)CC[C@@H]1[C@@]24OO3 [Compound 219, 2-((4-(((3R,5aS,6R,8aS, 9R,10S,12R, 12aR)-3,6,9-trimethyldeca-hydro-12H-3,12-epoxy[1,2]dioxepino[4,3-i]isochromen-10-yl)oxy)benzyl)oxy)acetic acid]	0.062	13.1	
C[C@H]1[C@@H](OCc2c(F)cc(C(=O)O)cc2Cl)O[C@@H]2O[C@@]3(C)CC[C@H]4[C@H](C)CC[C@@H]1[C@@]24OO3 [Compound 215, 3-chloro-5-fluoro-4-((((3R,5aS,6R,8aS, 9R,10S,12R, 12aR)-3,6,9-trimethyldeca-hydro-12H-3,12-epoxy[1,2]dioxepino[4,3-i]isochromen-10-yl)oxy)methyl) benzoic acid]	0.0665	5.51	
C[C@H]1[C@@H](OCc2ccc(N3C(=O)N(CC(=O)O)C(C)(C)C3=O)cc2)O[C@@H]2O[C@@]3(C)CC[C@H]4[C@H](C)CC[C@@H]1[C@@]24OO3 [Compound 296, 2-(5,5-dimethyl-2,4-dioxo-3-(4-((((3R,5aS,6R,8aS, 9R,10S,12R, 12aR)-3,6,9-trimethyldeca-hydro-12H-3,12-epoxy[1,2]dioxepino[4,3-i]isochromen-10-yl)oxy)methyl)phenyl)imidazolidin-1-yl)acetic acid]	2.91	> 20	
C[C@H]1[C@@H](OC/C=C/[C@]2(F)CC[C@H](C(=O)O)CC2)O[C@@H]2O[C@@]3(C)CC[C@H]4[C@H](C)CC[C@@H]1[C@@]24OO3 [Compound 271, (1S,4r)-4-fluoro-4-((E)-3-(((3R,5aS,6R,8aS, 9R,10S,12R, 12aR)-3,6,9-trimethyldeca-hydro-12H-3,12-epoxy[1,2]dioxepino[4,3-i]isochromen-10-yl)oxy)prop-1-en-1-yl) cyclohexane-1-carboxylic acid]	0.0924	19.1	
C[C@H]1[C@@H](Oc2ccc3cc(C(=O)O)ccc3c2)O[C@@H]2O[C@@]3(C)CC[C@H]4[C@H](C)CC[C@@H]1[C@@]24OO3 [Compound 214, 6-(((3R,5aS,6R,8aS, 9R,10S,12R, 12aR)-3,6,9-trimethyldeca-hydro-12H-3,12-epoxy[1,2]dioxepino[4,3-i]isochromen-10-yl)oxy)-2-naphthoic acid]	0.0537	0.22	

Second part, led by results:

EC50 (HL-60) [µM]	IC50 (in vitro) [µM]	SMILES	IC50 (in vitro; HL-60 cells) [µM]
11.4	> 20	C[C@H]1[C@@H](O[C@H]2CC[C@@H](C(=O)NC3(C(=O)O)CC3)CC2)O[C@@H]2O[C@@]3(C)CC[C@H]4[C@H](C)CC[C@@H]1[C@@]24OO3 [Compound 262, 1-((1R,4s)-4-(((3R,5aS,6R,8aS, 9R,10S,12R, 12aR)-3,6,9-trimethyldeca-hydro-12H-3,12-epoxy[1,2]dioxepino[4,3-i]isochromen-10-yl)oxy)cyclohexane-1-carboxamido) cyclopropane-1-carboxylic acid]	
0.0502	> 20	C[C@H]1[C@@H](OC[C@H]2CC[C@@H](C(=O)NC(C(=O)O)C3CCC3)CC2)O[C@@H]2O[C@@]3(C)CC[C@H]4[C@H](C)CC[C@@H]1[C@@]24OO3 (stereo partly drawn) [Compound 185, (S)-2-cyclobutyl-2-((1R,4R)-4-((((3R,5aS,6R,8aS, 9R,10S,12R, 12aR)-3,6,9-trimethyldeca-hydro-12H-3,12-epoxy[1,2]dioxepino[4,3-i]isochromen-10-yl)oxy)methyl)cyclohexane-1-carboxamido) acetic acid]	
> 20	> 20	C[C@H]1[C@@H](OCc2ccc(C(=O)N3C[C@@H](F)C[C@H]3C(=O)O)cc2)O[C@@H]2O[C@@]3(C)CC[C@H]4[C@H](C)CC[C@@H]1[C@@]24OO3 [Compound 276, (2S,4S)-4-fluoro-1-(4-((((3R,5aS,6R,8aS, 9R,10S,12R, 12aR)-3,6,9-trimethyldeca-hydro-12H-3,12-epoxy[1,2]dioxepino[4,3-i]isochromen-10-yl)oxy)methyl)benzoyl) pyrrolidine-2-carboxylic acid]	
0.065	15.8	C[C@H]1[C@@H](OCc2ccc(NC(=O)[C@H]3CC[C@@H](C(=O)O)C3)cc2)O[C@@H]2O[C@@]3(C)CC[C@H]4[C@H](C)CC[C@@H]1[C@@]24OO3 [Compound 294, (1R,3S)-3-((4-((((3R,5aS,6R,8aS, 9R,10S,12R, 12aR)-3,6,9-trimethyldeca-hydro-12H-3,12-epoxy[1,2]dioxepino[4,3-i]isochromen-10-yl)oxy)methyl)phenyl)carbamoyl) cyclopentane-1-carboxylic acid]	
1.89	15.2	C[C@H]1[C@@H](O[C@H]2CC[C@@H](C(=O)N[C@H](C(=O)O)c3ccccc3)CC2)O[C@@H]2O[C@@]3(C)CC[C@H]4[C@H](C)CC[C@@H]1[C@@]24OO3 [Compound 189, (S)-2-phenyl-2-((1R,4R)-4-(((3R,5aS,6R,8aS, 9R,10S,12R, 12aR)-3,6,9-trimethyldeca-hydro-12H-3,12-epoxy[1,2]dioxepino[4,3-i]isochromen-10-yl)oxy)cyclo-hexane-1-carboxamido) acetic acid]	
20.5	> 20	C[C@H]1[C@@H](OC[C@H]2CCC(C(=O)O)CO2)O[C@@H]2O[C@@]3(C)CC[C@H]4[C@H](C)CC[C@@H]1[C@@]24OO3 (stereo partly drawn) [Compound 212, (6R)-6-((((3R,5aS,6R,8aS, 9R,10S,12R, 12aR)-3,6,9-trimethyldeca-hydro-12H-3,12-epoxy[1,2]dioxepino[4,3-i]isochromen-10-yl)oxy)methyl) tetrahydro-2H-pyran-3-carboxylic acid]	
0.0512	12	C[C@H]1[C@@H](OC2CCc3cc(C(=O)O)ccc32)O[C@@H]2O[C@@]3(C)CC[C@H]4[C@H](C)CC[C@@H]1[C@@]24OO3 (stereo partly drawn) [Compound 226, 1-(((3R,5aS,6R,8aS, 9R,10S,12R, 12aR)-3,6,9-trimethyldeca-hydro-12H-3,12-epoxy[1,2]dioxepino[4,3-i]isochromen-10-yl)oxy)-2,3-dihydro-1H-indene-5-carboxylic acid]	
